Test results published in US7557145B2, “Inhibition of the asexual reproduction of fungi by eugenol and/or derivatives thereof” (Henkel Kommanditgesellschaft auf Aktien (Henkel KGAA), priority 2003, dated 2009).

What was measured:
Type in all cases: cell-based
[1] = test system: Aspergillus niger (DSM 1988); assay: Sporulation of Aspergillus niger on wort agar plates containing active component
Procedure: Effect of Eugenol and Eugenol Silicic Acid Esters on the Sporulation of Aspergillus niger
Contamination of the surface of wort agar plates with 100 μl of a germ suspension (10^3 CFU/ml) of Aspergillus niger (DSM 1988). Various quantities of active component (solutions in ethanol, final concentrations in % by weight, see Table) were added to the agar plates beforehand. The plates were incubated for 3 days at 25° C. Sporulation was visually evaluated and the sporulation rate in [%] was determined. […]

[2] = test system: Aspergillus niger, DSM 1988; assay: Sporulation of Aspergillus niger on the surface of an acetate jointing compound
Procedure: Effect on Eugenol on the Sporulation of Aspergillis niger on the Surface of an Acetate Jointing Compound
Commercially available, but preservative-free, one-component silicone jointing compounds curing at room temperature (acetate system, cured 2.2×2.2×0.3 cm pieces of film) were disinfected with 70% EtOH (ethanol) and placed for 24 h in active component solutions with various concentrations (in ethanol, see Table for final concentrations). The test specimens were then re-washed twice with EtOH, rinsed with water (sterile) and dried for 24 h. The test specimens were weighed before and after this treatment and the quantity of active component in the test specimens was thus determined together with the concentration of the active component solution. The test specimens were then placed on wort agar plates and thinly coated with agar in which fungal spores had been incorporated (10^5 CFU/ml Aspergillus niger, DSM 1988). The plates were incubated for 3 days at 25° C. Sporulation was visually evaluated from the test specimens and the sporulation rate in [%] was determined.

[3] = test system: Aspergillus niger (DSM 1988); assay: Sporulation of Aspergillus niger on a filter surface after 2 applications; conditions: for Sporulation [%]: filter paper treated twice with 50 μl, 3 days at 25° C.
Procedure: Effect of Eugenol on the Sporulation of Aspergillus niger on a Filter Surface After 2 Applications
Filter papers (2×2 cm) were disinfected and treated twice with a 1 hour interval with 50 μl of active-component solutions differing in concentration. The test specimens were then dried. The test specimens were then placed on wort agar plates and the surface of the wort agar plates was contaminated with 100 μl of a germ suspension (10^3 CFU/ml) of Aspergillus niger (DSM 1988). The plates were incubated for 3 days at 25° C. Sporulation was visually evaluated and the sporulation rate in [%] was determined. […] Sporulation was inhibited by increasing concentrations of eugenol and was 90% suppressed at 90 μm.

CC(C)=CCCC(C)=CCCC(C)=CCO [farnesol, reference compound]
Sporulation [%] ([1]; comparison test, concentration of farnesol 125 μm): 50% | Sporulation [%] ([2]; concentration of farnesol 0.4 μm/g jointing compound, 3 days at 25° C.): 100% | Sporulation [%] ([2]; concentration of farnesol 1.1 μm/g jointing compound, 3 days at 25° C.): 100% | Sporulation [%] ([2]; concentration of farnesol 17 μm/g jointing compound, 3 days at 25° C.): 30% | Inhibition of sporulation compared with eugenol ([2]; parallel test series, identical concentrations): inhibited, but to a far lesser extent compared with identical concentrations of eugenol | Sporulation [%] ([3]; concentration 0.5 μm): 100% | Sporulation [%] ([3]; concentration 5 μm): 100% | Sporulation [%] ([3]; concentration 25 μm): 100% | Sporulation [%] ([3]; concentration 35 μm): 60% | Sporulation [%] ([3]; concentration 50 μm): 80% | Sporulation [%] ([3]; concentration 70 μm): 50% | Sporulation [%] ([3]; concentration 90 μm): 40% | Inhibition of sporulation compared with eugenol ([3]; second, parallel test series, identical concentrations): inhibited, but to a lesser extent compared with identical concentrations of eugenol

C=CCc1ccc(O)c(OC)c1 [eugenol, 4-allyl-2-methoxyphenol]
Sporulation [%] ([1]; concentration of eugenol 4 μm in wort agar, 3 days at 25° C., visually evaluated): 100% | Sporulation [%] ([1]; concentration of eugenol 40 μm in wort agar, 3 days at 25° C.): 100% | Sporulation [%] ([1]; concentration of eugenol 65 μm in wort agar, 3 days at 25° C.): 100% | Sporulation [%] ([1]; concentration of eugenol 90 μm in wort agar, 3 days at 25° C.): 80% | Sporulation [%] ([1]; concentration of eugenol 110 μm in wort agar, 3 days at 25° C.): 70% | Sporulation [%] ([1]; concentration of eugenol 220 μm in wort agar, 3 days at 25° C.): 0% | Sporulation [%] ([1]; concentration of eugenol 330 μm in wort agar, 3 days at 25° C.): 0% | Sporulation [%] ([1]; concentration of eugenol 650 μm in wort agar, 3 days at 25° C.): 0% | Concentration at which sporulation was completely suppressed ([1]; wort agar plates, 3 days at 25° C.): 220 µM | Sporulation [%] ([2]; concentration of eugenol 1.7 μm/g jointing compound, 3 days at 25° C.): 0% | Sporulation [%] ([2]; concentration of eugenol <1 μm/g jointing compound, 3 days at 25° C.): 100% | Sporulation [%] ([2]; concentration of eugenol ca. 3 μm/g jointing compound, 3 days at 25° C.): 0% | Concentration at which sporulation was completely suppressed ([2]; silicone jointing compound (acetate system), 3 days at 25° C.): 1.7 μm/g jointing compound | Sporulation suppressed ([3]; at 90 μm, filter surface after 2 applications): 90% | Sporulation [%] ([3]; concentration 0.6 μm): 100% | Sporulation [%] ([3]; concentration 6 μm): 100% | Sporulation [%] ([3]; concentration 30 μm): 100% | Sporulation [%] ([3]; concentration 45 μm): 100% | Sporulation [%] ([3]; concentration 60 μm): 100% | Sporulation [%] ([3]; concentration 90 μm): 10% | Sporulation [%] ([3]; concentration 120 μm): 10%
